Literature values, collected in patent publication US20080139531A1, “USE OF CONNECTIVE TISSUE MAST CELL STABILIZERS TO FACILITATE OCULAR SURFACE RE-EPITHELIZATION AND WOUND REPAIR” (ALCON MANUFACTURING LTD., priority 2006, published 2008).

Tested on: human conjunctival mast cells
Conditions: qualitative statement citing Yanni et al., 1997

Row | Structure (SMILES) | inhibition of histamine release from human conjunctival mast cells
1 | CN(C)CCC=C1c2ccccc2COc2ccc(CC(=O)O)cc21 [olopatadine, 11-(3-dimethylaminopropylidene)-6,11-dihydrodibenz[b,e]oxepin-2-acetic acid] | inhibits histamine release
2 | Cc1cccn2c(=O)c(-c3nnn[nH]3)cnc12 [pemirolast] | Unlike cromolyn and pemirolast, olopatadine inhibits histamine release
